Test results: patent US20230338564A1, “NEODEGRADER CONJUGATES” (Orum Therapeutics, Inc., priority 2020, published 2023)

Columns and labels:
Test in all cases: In vitro antiproliferation assay, General Procedure 1 (WST-8)
Assay type in all cases: cell-based
Daudi lymphoma cell line = system: Daudi lymphoma cell line
Procedure: (§1) The ability of neoDegrader conjugates to inhibit cell growth was measured using in vitro anti-proliferation assay. […] Conjugates were diluted in complete cell growth medium using 4-fold serial dilutions and 100 µL was added per well. […] Viability of remaining cells was determined by colorimetric WST-8 assay (Dojindo Molecular Technologies, Inc., Rockville, MD, US). WST-8 was added to 10% of the final volume and plates were incubated at 37° C. in a humidified 5% CO2 incubator for 2-4 hours. Plates were analyzed by measuring the absorbance at 450 nm (A450) in a multi-well plate reader. Background A450 absorbance of wells with media and WST-8 only was subtracted from all values. The percent viability was calculated by dividing each treated sample value by the average value of wells with untreated cells. The percent viability value was plotted against the test sample concentration in a semi-log plot for each treatment. IC50 values were calculated automatically.

[1] = system: Ramos (non-Hodgkins lymphoma) cell line
Procedure: as §1

[2] = system: JHUEM-3 cell line (Uterus)
Procedure: as §1

[3] = system: NCI-H2030 cell line (Lung); details: Homo sapiens
Procedure: as §1

[4] = system: CFPAC-1 cell line (Pancreatic); details: Homo sapiens
Procedure: as §1

[5] = system: NCI-N87 gastric cancer cell line
Procedure: as §1

[6] = system: BT-474 breast cancer cell line; details: Homo sapiens, BT-474, read-out: IC50, BT-474, conjugates DAR 8, comparators DAR not given
Procedure: as §1

[7] = system: SK-BR-3 breast cancer cell line
Procedure: as §1

[8] = system: HCC1954 cell line (Breast); details: Homo sapiens, conjugates DAR 8
Procedure: as §1

Q: Which results are given for `CNCCOCCc1ccc(NC(=O)NCc2ccc3c(c2)CN(C2CCC(=O)NC2=O)C3=O)cc1Cl` (stereo not shown) [Compound P1, 1-(3-chloro-4-[2-[2-(methylamino)ethoxy]ethyl]phenyl)-3-[[2-(2,6-dioxopiperidin-3-yl)-1-oxo-3H-isoindol-5-yl]methyl]urea]?
A: antiproliferative activity compared, in words (Daudi lymphoma cell line; Daudi cells, rituximab neoDegrader conjugates versus comparators, FIGS. 14 and 15): less active; IC50 (Daudi lymphoma cell line; Homo sapiens, Daudi): > 0.1 µM; IC50 ([1]; Homo sapiens, Ramos): > 0.1 µM; antiproliferative activity compared, in words ([1]; Ramos cells, rituximab neoDegrader conjugates versus comparators, FIG. 13): less active; IC50 [2]: > 0.1 µM; IC50 [3]: > 0.1 µM; IC50 [4]: > 0.1 µM; IC50 ([5]; Homo sapiens, NCI-N87, Gastric, conjugates DAR 8): > 0.1 µM; anti-proliferative activity compared, in words ([5]; NCI-N87 cells, neoDegrader conjugates (DAR 8) versus comparators, FIGS. 16 and 17): significantly less active; IC50 [6]: 0.013 µM; IC50 ([7]; Homo sapiens, SK-BR-3, Breast, conjugates DAR 8): 0.1 µM; anti-proliferative activity compared, in words ([7]; SK-BR-3 cells, neoDegrader conjugates (DAR 8) versus comparators, FIGS. 7 and 8): significantly less active; IC50 [8]: > 0.1 µM
